Experimental findings from US20230348371A1, “SULFONYLUREA DERIVATIVE AND MEDICAL USES THEREOF” (SHANGHAI SENHUI MEDICINE CO., LTD., priority 2020, published 2023) are described below.

Read-outs that look alike come from different tables or passages of the source.

Data set [1] in a line: In vivo pharmacokinetics after single intravenous injection in SD rats (plasma). Conditions: rat, single IV 5 mg/kg; for Vd: iv, 5 mg/kg; for MRT last: read-out: MRT(0-t); for MRT inf: read-out: MRT(0-∞). As to the method:
1. […] The mixture was stirred or sonicated until completely dissolved to obtain a clear solution at a concentration of 1 mg/mL for administration by intravenous injection.
2. An appropriate amount of compound 3 or compound 6 was accurately weighed, and an appropriate volume of 5% DMSO+20% PG+20% PEG400+55% PBS (pH 8.0) was added thereto. The mixture was stirred or sonicated until completely dissolved to obtain a clear solution at a concentration of 1 mg/mL for administration by intravenous administration.
SPF grade SD rats, source: animals were transferred from the laboratory animal reserve bank (999M-017), Shanghai Sippe-Bk Lab Animal Co., Ltd.
3 rats/time point was set, blood samples were collected from the first 3 rats in each group, and cerebrospinal fluid and brain tissue were collected from the last 3 rats in each group. Blood sample: before administration and 5 min, 0.25 h, 0.5 h, 1 h, 1.5 h, 2 h, 4 h, 6 h, 8 h, 12 h and 24 h after administration. Tissue sample: cerebrospinal fluid and brain tissue were collected 10 min after administration.
Blood sample: blood was collected via jugular vein or other suitable means, and about 0.20 mL of blood was collected from each rat and added into an EDTA-K2 anticoagulation tube, which was then placed on ice after collection and centrifuged within 2 h for plasma separation (centrifugation conditions: 6800 g, 6 min, 2-8° C.). The collected plasma samples were stored in a refrigerator at −70° C. before analysis, and the residual plasma samples after analysis were still stored in the refrigerator at −70° C. for subsequent processing according to the requirements of the sponsor.
The concentration of each test compound in the plasma and tissue samples was determined. The accuracy of quality control samples was evaluated while analyzing the samples, and more than 66% of the quality control samples were required to have an accuracy between 80% and 120%.
The pharmacokinetic parameters such as AUC(0-t), T½, Cmax, Tmax and MRT were calculated from plasma concentration data at different time points using WinNonlin.
When plasma drug concentration-time curves were plotted, BLQ was recorded as 0. When the pharmacokinetic parameters were calculated, the concentration before administration was calculated as 0; BLQ before Cmax (including “No peak”) was calculated as 0; and BLQ that occurs after Cmax (including “No peak”) was excluded from the calculation.

For another data set, the target named is SUR1 receptor (Homo sapiens (Human), UniProt Q09428). Nature of the data set: Binding activity for SUR1 receptor ([3H]-Glibenclamide displacement, SUR1 membrane). To be noted: SUR1 membrane protein, [3H]-Glibenclamide 2 nM, 37° C. 1 h. As to the method:
The plate was incubated at 4° C. for 1 h. • f) The […]-96 GF/C and […]-96 GF/B plates were washed twice with Universal Harvester, each time with 50 mL of washing solution. • g) The SUR1 receptor reaction system was transferred to a […]-96 GF/B plate with Universal Harvester, and 900 μL of washing solution was added to each well to wash the GF/B plate 4 times. The washed […]-96 GF/B plate was dried in an oven at 55° C. for 10 min. • h) 40 μL of ULTIMA GOLD scintillation solution was added to each well, and the plate was read using Microbeta.

[2] abbreviates: Sprague-Dawley (SD), read-out: Vss.
The mark [3] stands for this setting: Sprague-Dawley (SD), read-out: Vz.

Sequence of SUR1 receptor (Q09428 whole entry): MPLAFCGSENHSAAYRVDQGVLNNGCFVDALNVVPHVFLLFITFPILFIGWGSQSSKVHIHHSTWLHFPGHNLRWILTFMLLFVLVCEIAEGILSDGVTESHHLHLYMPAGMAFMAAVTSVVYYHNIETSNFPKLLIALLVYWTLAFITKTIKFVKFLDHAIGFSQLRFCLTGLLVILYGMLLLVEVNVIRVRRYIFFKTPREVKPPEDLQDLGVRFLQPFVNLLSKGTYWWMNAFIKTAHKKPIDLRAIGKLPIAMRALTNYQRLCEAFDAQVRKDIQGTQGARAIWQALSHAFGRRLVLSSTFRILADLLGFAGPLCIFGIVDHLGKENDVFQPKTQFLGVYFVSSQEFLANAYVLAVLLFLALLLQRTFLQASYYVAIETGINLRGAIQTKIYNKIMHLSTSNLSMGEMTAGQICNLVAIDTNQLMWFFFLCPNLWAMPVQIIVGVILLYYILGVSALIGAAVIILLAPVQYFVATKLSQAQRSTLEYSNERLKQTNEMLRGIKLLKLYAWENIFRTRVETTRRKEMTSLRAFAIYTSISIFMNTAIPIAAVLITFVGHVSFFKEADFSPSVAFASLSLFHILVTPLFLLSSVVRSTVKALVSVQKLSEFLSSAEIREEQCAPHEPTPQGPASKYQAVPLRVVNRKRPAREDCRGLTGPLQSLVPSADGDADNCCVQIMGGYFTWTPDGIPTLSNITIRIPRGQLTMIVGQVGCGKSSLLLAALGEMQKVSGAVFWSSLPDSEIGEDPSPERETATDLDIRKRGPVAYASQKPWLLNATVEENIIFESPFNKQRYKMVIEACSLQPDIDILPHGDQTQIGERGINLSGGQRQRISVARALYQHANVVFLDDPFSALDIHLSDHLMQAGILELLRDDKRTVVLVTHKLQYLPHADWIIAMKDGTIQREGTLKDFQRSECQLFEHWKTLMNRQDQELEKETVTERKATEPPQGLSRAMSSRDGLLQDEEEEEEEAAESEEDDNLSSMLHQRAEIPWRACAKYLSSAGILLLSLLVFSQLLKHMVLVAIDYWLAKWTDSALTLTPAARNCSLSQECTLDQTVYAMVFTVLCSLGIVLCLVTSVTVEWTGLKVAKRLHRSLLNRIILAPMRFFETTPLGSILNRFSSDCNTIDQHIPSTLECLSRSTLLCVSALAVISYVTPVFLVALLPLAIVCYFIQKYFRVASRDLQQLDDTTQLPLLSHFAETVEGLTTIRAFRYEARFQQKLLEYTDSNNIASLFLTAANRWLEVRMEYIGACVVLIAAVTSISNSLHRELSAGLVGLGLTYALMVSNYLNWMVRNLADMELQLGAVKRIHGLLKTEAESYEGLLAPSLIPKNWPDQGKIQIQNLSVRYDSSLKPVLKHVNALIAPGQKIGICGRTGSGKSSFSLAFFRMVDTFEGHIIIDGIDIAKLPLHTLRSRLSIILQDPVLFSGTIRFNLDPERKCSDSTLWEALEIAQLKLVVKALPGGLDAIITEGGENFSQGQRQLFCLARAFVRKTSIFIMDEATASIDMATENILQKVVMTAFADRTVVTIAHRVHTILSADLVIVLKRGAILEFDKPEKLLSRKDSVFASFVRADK

As a reminder, the AUC(0-inf) is the area under the concentration-time curve extrapolated to infinity. Read a low AUC(0-inf) as low exposure. For orientation: AUC(0-t) means exposure summed from dosing to a finite time, without extrapolation to infinity. Read a high AUC(0-t) as high exposure. What is called Cmax is the highest concentration seen after dosing. As usually defined, the Tmax is the time from dosing to the highest level. Usually half-life stands for the time needed for the level to fall by half in the phase considered. Higher therefore signals slow decline. Turning to `COc1ccc(Cl)cc1C(=O)NCCc1ccc(S(=O)(=O)NC(=O)N[C@H]2CC[C@H](O)CC2)cc1` [Compound 4, 5-chloro-N-(4-(N-(((1r,4r)-4-hydroxycyclohexyl)carbamoyl)sulfamoyl)phenethyl)-2-methoxybenzamide], the Vd in data set [1] (SD, read-out: Vss) was 0.119 ± 0.0123 L/kg. Also, the Vd in data set [1] (SD, read-out: Vz) was found to be 1.66 ± 1.73 L/kg. In data set [1], the AUC(0-inf) came out at 13000 ± 1480 ng·h/mL, the AUC(0-t) worked out at 12900 ± 1460 ng·h/mL, the Cmax stood at 39600 ± 4730 ng/mL and the Tmax was 6 min. In data set [1], the half-life is 3.1 ± 3.4 h, the MRT last amounted to 0.3 ± 0.1 h and the MRT inf was determined as 0.3 ± 0.1 h.
For orientation: IC50 means the concentration needed to halve the response being measured. With `COc1ccc(C#N)cc1C(=O)NCCc1ccc(S(=O)(=O)NC(=O)NC2CCCCC2)cc1` [Compound 7, 5-cyano-N-(4-(N-(cyclohexylcarbamoyl)sulfamoyl)phenethyl)-2-methoxybenzamide], the IC50 on SUR1 receptor is 6 nM. Further, in data set [1] (setting [2]), the Vd stood at 0.193 ± 0.0469 L/kg. In data set [1] (setting [3]), the Vd stood at 0.5 ± 0.16 L/kg. For the same compound, in data set [1] (Sprague-Dawley (SD)), the AUC(0-inf) came out at 28600 ± 7920 ng·h/mL, the AUC(0-t) stood at 28500 ± 7930 ng·h/mL, the peak level (Cmax) was 42400 ± 8440 ng/mL and the Tmax stood at 6 min. In data set [1] (Sprague-Dawley (SD)), the half-life was 1.9 ± 0.2 h, the MRT last is 1 h and the MRT inf was 1.1 h.
With `Cc1cnc(C(=O)NCCc2ccc(S(=O)(=O)NC(=O)NC3CCCCC3)cc2)cn1` [Glipizide, reference compound], on SUR1 receptor, the IC50 turned out to be 230 nM.
`O=C(NC1CCCCC1)NS(=O)(=O)c1ccc(CCNC(=O)c2cc(Cl)ccc2OC(F)(F)F)cc1` [Compound 3, 5-chloro-N-(4-(N-(cyclohexylcarbamoyl)sulfamoyl)phenethyl)-2-(trifluoromethoxy)benzamide] returned an IC50 on SUR1 receptor of 159 nM. Also, the Vd in data set [1] (setting [2]) was found to be 0.303 ± 0.0141 L/kg. For the same compound, the Vd in data set [1] (setting [3]) was found to be 0.51 ± 0.0307 L/kg. In data set [1] (Sprague-Dawley (SD)), the AUC(0-inf) came out at 36400 ± 1170 ng·h/mL, the AUC(0-t) came to 35700 ± 1130 ng·h/mL, the Cmax is 32800 ± 1530 ng/mL and the Tmax came to 6 min. For the same compound, in data set [1] (Sprague-Dawley (SD)), the half-life was 2.6 ± 0.1 h, the MRT last came to 1.9 ± 0.1 h and the MRT inf was 2.2 ± 0.1 h.
In the case of `O=C(NC1CCCCC1)NS(=O)(=O)c1ccc(CCNC(=O)c2cc(Cl)ccc2O)cc1` [Compound 1, 5-chloro-N-(4-(N-(cyclohexylcarbamoyl)sulfamoyl)phenethyl)-2-hydroxybenzamide], the Vd in data set [1] (setting [2]) is 0.219 ± 0.0263 L/kg. In addition, the Vd in data set [1] (setting [3]) was 1 ± 0.202 L/kg. Further, in data set [1] (Sprague-Dawley (SD)), the AUC(0-inf) is 28700 ± 4700 ng·h/mL, the AUC(0-t) was 28200 ng·h/mL, the Cmax was 65000 ± 3630 ng/mL and the Tmax was 6 min. Moreover, in data set [1] (Sprague-Dawley (SD)), the half-life was 3.9 ± 0.6 h, the MRT last was determined as 0.9 ± 0.3 h and the MRT inf stood at 1.2 ± 0.1 h.
Consider `COc1ccc(Cl)cc1C(=O)NCCc1ccc(S(=O)(=O)NC(=O)N[C@@H]2CCCC[C@H]2C#N)cc1` [Compound 6, 5-chloro-N-(4-(N-(((1R,2R)-2-cyanocyclohexyl)carbamoyl)sulfamoyl)phenethyl)-2-methoxybenzamide], for which the IC50 on SUR1 receptor was 37 nM. The Vd in data set [1] (setting [2]) amounted to 3.44 ± 4.53 L/kg. The Vd in data set [1] (setting [3]) was 14.6 ± 19.1 L/kg. Further, in data set [1] (Sprague-Dawley (SD)), the AUC(0-inf) was determined as 4980 ± 288 ng·h/mL, the AUC(0-t) was 4660 ± 259 ng·h/mL, the Cmax is 11800 ± 1060 ng/mL and the Tmax turned out to be 6 min. In data set [1] (Sprague-Dawley (SD)), the half-life is 5.4 ± 2.1 h, the MRT last stood at 0.7 ± 0.1 h and the MRT inf was found to be 3.6 ± 4.8 h.
